Reference: patent publication US11274324B2, “Engineering polyketide synthase in cyanobacteria” (The Regents of the University of California, priority 2019, dated 2022)

Assays:
S. elongatus = settings: at low concentrations; previously reported; cited from earlier work
[1] = system: S. elongatus AMC2302 wild type; experiment: Cell toxicity analysis of precursors; assay type: cell-based, Synechococcus elongatus; settings: final concentration of 1 mM; preliminary analyses, FIG. 12A
Procedure: FIGS. 12A-12B show cell toxicity analysis to determine the optimal concentration of precursors. FIG. 12A is an image showing cell growth after addition of substrate. Methylmalonate (me-malonate) and propionate were added to S. elongatus AMC2302 wild type at different concentrations: 0, 1, 5, 10, 15, and 20 mM. Each column is a duplicate of the experiment. FIG. 12B is an image showing cell growth after addition of substrate. n-octanol was added to S. elongatus AMC2302 wild type at different concentrations: 0.125, 0.25, 0.5, 1, 2, and 0 mM. Each column is a duplicate (FIG. 12A), or triplicate of the experiment (FIG. 12B).
While module I was constitutively expressed from Peonn (Elledge and Davis et al. 1989; Taton et al. 2014), the expression and activation of module III depended on the expression of the T7 RNAP and Sfp placed in downstream PconII and under the translational control of theophylline inducible riboswitches. The biosynthesis of methylmalonyl-CoA required methylmalonate (module IA) or propionate (module IC) as substrates, and the transesterification of the ACP-bound MBFA required an alcohol substrate (n-octanol) to produce MBE as the final product. Cell toxicity analysis with methylmalonate, propionate and n-octanol were carried out to determine the optimal concentration of these precursors. (FIG. 12). […]

[2] = system: S. elongatus recombinant strain MatB F pfm (module IIA); experiment: Bioconversion assay, MBE production at different theophylline concentrations; assay type: cell-based, Synechococcus elongatus
Procedure: FIGS. 6A-6B show MBE biosynthesis by recombinant MatB F pfm and MatB B6 pfm cyanobacterial strains induced with different theophylline concentrations.
The two strains containing module IA (MatB) for methylmalonyl-CoA biosynthesis, modules IIA or IIB for T7 RNAP and Sfp expression, and module III for the Mas and accessory enzyme expression were analyzed. In addition, strains without the module III and a wild type strain were comprised as negative controls. For the bioconversion assays the strains were induced with theophylline 2 mM and 24 h later supplemented with 10 mM methylmalonate, 0.25 mM n-octanol and labeled with 2 μCi ^14C-acetate (58.9 mCi/mmol, PerkinElmer). After addition of the precursors the cultures were grown for 48 h, the in vivo synthesis of MBE was analyzed on total lipid extractions from each culture by TLC fractionation and autoradiography (FIGS. 3A-3B). Additional control bioconversion assays were carried out in the absence of either or both precursors, and labeled MBE synthesized by the E. coli strain RQ1 used as a standard (Menendez-Bravo et al. 2014). […]

[3] = system: theophylline dependent riboswitch B; experiment: Inducible T7 expression system, PT7-YFP reporter fluorescence; assay type: cell-based, S. elongatus; settings: mutated PconII*
Procedure: (§1) FIGS. 2A-2B show characterization of inducible T7 expression systems in S. elongatus at different theophylline concentrations. The expression of the T7RNAP was driven by a mutated PconII* and was translationally controlled by riboswitch B (FIG. 2A) or riboswitch F (FIG. 2B). YFP fluorescence served as an easily readable output. Three independent strains were analyzed for each construct and error bars indicate standard deviations of the replicates.
(§2) To establish a functional and inducible T7RNAP based expression system for S. elongatus, devices were constructed where the transcription of the T7 RNA polymerase was driven by the conII promoter and its translation was controlled by either the theophylline dependent riboswitches B or F (Ma et al 2014). […] Thus, the potentiality of these regulatory devices when using a TRNAP expression system in S. elongatus was studied. Initially, the inventors constructed a reporter device in which the YFP reporter gene was driven by the PT7 and the T7RNAP expression was left under the control of a PconII-riboswitch (B or F). Both the T7RNAP expression systems and the reporter PT7-YFP were independently integrated at NS1 and NS2 of S. elongatus chromosome (Clerico et al 2007).

[4] = system: theophylline dependent riboswitch F; experiment: as above; assay type: cell-based, S. elongatus; settings: mutated PconII*
Procedure: as §1, §2

| Structure (SMILES) | toxicity for S. elongatus (S. elongatus) | toxicity for S. elongatus [1] | effect on cell viability ([2]; 8 mM theophylline) | theophylline concentration reaching high levels of MBE production ([2]; module IIA, methylmalonate 10 mM, n-octanol 0.25 mM) | concentration of theophylline needed to reach maximal fluorescence [3] | concentration of theophylline needed to reach maximal fluorescence [4] |
| --- | --- | --- | --- | --- | --- | --- |
| CCC(=O)O [propionate] | toxic | not toxic | – | – | – | – |
| Cn1c(=O)c2[nH]cnc2n(C)c1=O [theophylline] | – | – | detrimental to cell viability | 4 mM | 2 mM | 1 mM |
